Experimental data from US6638943B2 (The University of Tennessee Research Foundation, priority 2001, dated 2003).
Read-outs that look alike come from different tables or passages of the source. One block for each compound: values may come before it.

Legend:
[1] = target: T1, human α2c-AR (Homo sapiens, UniProt P18825); test: [3H]Rauwolscine equilibrium competition binding, human α2c-AR expressed in CHO cells
T1 construct: expressed in transfected cells
T1 sequence (P18825 1-462): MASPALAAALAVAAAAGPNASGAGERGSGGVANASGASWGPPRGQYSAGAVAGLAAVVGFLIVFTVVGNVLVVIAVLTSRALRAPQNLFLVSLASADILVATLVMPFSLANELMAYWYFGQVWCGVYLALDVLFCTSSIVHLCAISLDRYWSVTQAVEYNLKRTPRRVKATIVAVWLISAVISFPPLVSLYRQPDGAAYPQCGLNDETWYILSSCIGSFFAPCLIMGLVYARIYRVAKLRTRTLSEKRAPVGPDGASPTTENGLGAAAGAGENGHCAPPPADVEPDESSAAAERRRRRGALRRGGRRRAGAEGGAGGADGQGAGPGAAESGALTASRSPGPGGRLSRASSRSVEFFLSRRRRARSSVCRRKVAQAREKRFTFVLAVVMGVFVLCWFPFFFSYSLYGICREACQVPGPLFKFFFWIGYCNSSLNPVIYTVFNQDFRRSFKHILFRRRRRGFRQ

[2] = target: T2, human α2a-AR (Homo sapiens, UniProt P08913); test: [3H]Rauwolscine equilibrium competition binding, human α2a-AR expressed in CHO cells; conditions: for Ki: human α2a-AR in CHO cells; for α2a/α2b Selectivity = Ki(α2b)/Ki(α2a): Table 1, ratio of Ki values
T2 construct: expressed in transfected cells
T2 sequence (P08913 1-465): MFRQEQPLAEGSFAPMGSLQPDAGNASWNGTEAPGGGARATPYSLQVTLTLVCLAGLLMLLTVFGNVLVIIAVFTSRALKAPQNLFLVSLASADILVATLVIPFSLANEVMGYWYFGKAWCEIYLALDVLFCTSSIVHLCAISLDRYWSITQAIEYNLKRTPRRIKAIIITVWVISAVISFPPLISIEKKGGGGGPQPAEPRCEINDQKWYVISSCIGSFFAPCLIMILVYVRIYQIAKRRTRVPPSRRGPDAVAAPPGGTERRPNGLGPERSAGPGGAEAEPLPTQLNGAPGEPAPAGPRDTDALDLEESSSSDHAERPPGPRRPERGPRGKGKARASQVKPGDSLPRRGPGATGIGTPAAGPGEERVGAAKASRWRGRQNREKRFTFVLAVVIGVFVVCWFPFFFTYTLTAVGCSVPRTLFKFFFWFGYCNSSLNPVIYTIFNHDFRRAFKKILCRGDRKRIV

[3] = target: T3, human α2b-AR (Homo sapiens, UniProt P18089); test: [3H]Rauwolscine equilibrium competition binding, human α2b-AR expressed in CHO cells
T3 construct: expressed in transfected cells
T3 sequence (P18089 1-450): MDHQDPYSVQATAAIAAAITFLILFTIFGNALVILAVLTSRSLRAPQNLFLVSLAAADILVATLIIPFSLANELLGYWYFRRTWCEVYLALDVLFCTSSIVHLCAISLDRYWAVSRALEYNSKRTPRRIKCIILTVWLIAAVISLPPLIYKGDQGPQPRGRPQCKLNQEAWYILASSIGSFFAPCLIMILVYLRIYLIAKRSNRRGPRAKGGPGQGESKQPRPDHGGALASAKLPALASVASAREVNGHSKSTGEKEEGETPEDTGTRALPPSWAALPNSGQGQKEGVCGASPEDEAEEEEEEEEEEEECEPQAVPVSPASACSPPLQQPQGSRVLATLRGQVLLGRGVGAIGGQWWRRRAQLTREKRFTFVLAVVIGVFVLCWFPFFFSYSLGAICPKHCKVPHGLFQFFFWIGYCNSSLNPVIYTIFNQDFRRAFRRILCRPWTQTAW

[4] = Table 2, mean ± SEM of n = 4-6, read-out: pKi α2a-AR (converted)
[5] = [3H]rauwolscine 2.54 nM, mean ± SEM of four to nine experiments, read-out: Ki = SEM (nM) α2a-AR
[6] = Table 2, mean ± SEM of n = 4-6, read-out: pKi α2b-AR (converted)
[7] = [3H]rauwolscine 2.54 nM, mean ± SEM of four to nine experiments, read-out: Ki = SEM (nM) α2b-AR

SMILES: O=C(NCCNC(=O)[C@@H]1[C@H]2C[C@H]3c4[nH]c5ccccc5c4CCN3C[C@@H]2CC[C@@H]1O)[C@@H]1[C@H]2C[C@H]3c4[nH]c5ccccc5c4CCN3C[C@@H]2CC[C@@H]1O [Compound 3a]
- Ki [1]: 3.55 nM
- Ki [2, 4]: 93.3 nM
- Ki [2, 5]: 26.4 ± 7.3 nM
- Ki [3, 6]: 3160 nM
- Ki [3, 7]: 1510 ± 262 nM

SMILES: O=C(NCCCCNC(=O)[C@@H]1[C@H]2C[C@H]3c4[nH]c5ccccc5c4CCN3C[C@@H]2CC[C@@H]1O)[C@@H]1[C@H]2C[C@H]3c4[nH]c5ccccc5c4CCN3C[C@@H]2CC[C@@H]1O [Compound 3c]
- Ki [1]: 8.32 nM
- Ki [2, 4]: 53.7 nM
- Ki [2, 5]: 15.3 ± 6.2 nM
- Ki [3, 6]: 398 nM
- Ki [3, 7]: 189 ± 38.1 nM

SMILES: O=C(NCCCCCNC(=O)[C@@H]1[C@H]2C[C@H]3c4[nH]c5ccccc5c4CCN3C[C@@H]2CC[C@@H]1O)[C@@H]1[C@H]2C[C@H]3c4[nH]c5ccccc5c4CCN3C[C@@H]2CC[C@@H]1O [Compound 3d]
- Ki [1]: 10.7 nM
- Ki [2, 4]: 6.17 nM
- Ki [2, 5]: 1.73 ± 0.26 nM

SMILES: O=C(NCCCCCCCCNC(=O)[C@@H]1[C@H]2C[C@H]3c4[nH]c5ccccc5c4CCN3C[C@@H]2CC[C@@H]1O)[C@@H]1[C@H]2C[C@H]3c4[nH]c5ccccc5c4CCN3C[C@@H]2CC[C@@H]1O [Compound 3g]
- α2a/α2b Selectivity = Ki(α2b)/Ki(α2a) [2]: 60.5
- Ki [2, 5]: 0.76 ± 0.12 nM
- Ki [3, 7]: 46 ± 7.6 nM

SMILES: O=C(NCCCCCCCCCCNC(=O)[C@@H]1[C@H]2C[C@H]3c4[nH]c5ccccc5c4CCN3C[C@@H]2CC[C@@H]1O)[C@@H]1[C@H]2C[C@H]3c4[nH]c5ccccc5c4CCN3C[C@@H]2CC[C@@H]1O [Compound 3i]
- α2a/α2b Selectivity = Ki(α2b)/Ki(α2a) [2]: 47.7
- Ki [2, 5]: 0.39 ± 0.08 nM
- Ki [3, 7]: 18.6 ± 1.6 nM

Now from value to compound:

- Ki [1]: 6.92 nM
- Ki [2, 4]: 4.47 nM
- Ki [2, 5]: 1.35 ± 0.27 nM
- Ki [3, 6]: 288 nM
- Ki [3, 7]: 166 ± 56.7 nM
SMILES: O=C(NCCCCCCNC(=O)[C@@H]1[C@H]2C[C@H]3c4[nH]c5ccccc5c4CCN3C[C@@H]2CC[C@@H]1O)[C@@H]1[C@H]2C[C@H]3c4[nH]c5ccccc5c4CCN3C[C@@H]2CC[C@@H]1O [Compound 3e]

- Ki [1]: 3.39 nM
- Ki [2, 4]: 3.09 nM
- Ki [2, 5]: 0.87 ± 0.18 nM
SMILES: O=C(NCCCCCCCNC(=O)[C@@H]1[C@H]2C[C@H]3c4[nH]c5ccccc5c4CCN3C[C@@H]2CC[C@@H]1O)[C@@H]1[C@H]2C[C@H]3c4[nH]c5ccccc5c4CCN3C[C@@H]2CC[C@@H]1O [Compound 3f]
